Where “and” joins values, the source holds several entries; their conditions need not be identical. Identical values can stand only once. Each block holds one substance with its values, some of them ahead of it. Ends that are not written are not given here.
Key:
IDE [1] = molecular target: T1, IDE (Homo sapiens, UniProt P14735); experiment: Vulnerability of peptides to degradation by IDE: 0 vs 4 h pre-incubation, then FRET1 assay; format: biochemical; conditions: for Ki: Cheng-Prusoff from IC50, FRET1 KM 10 uM, substrate 5 uM; for remaining activity at 0.12207 µM / remaining activity at 0.488281 µM / remaining activity at 1.95312 µM / remaining activity at 7.8125 µM / remaining activity at 31.25 µM / remaining activity at 125 µM / remaining activity at 500 µM: 4 h, read-out: Percent Activity (normalized initial velocity of FRET1 hydrolysis); for remaining activity at 0.12207 µM / remaining activity at 0.488281 µM / remaining activity at 1.95312 µM / remaining activity at 7.8125 µM / remaining activity at 31.25 µM / remaining activity at 125 µM / remaining activity at 500 µM / Percent Activity (normalized initial velocity of FRET1 hydrolysis): relative to DMSO-only controls; for IC50: FRET1 assay
T1 construct: made in house; host or cells: bacteria
T1 sequence (P14735 1-1019): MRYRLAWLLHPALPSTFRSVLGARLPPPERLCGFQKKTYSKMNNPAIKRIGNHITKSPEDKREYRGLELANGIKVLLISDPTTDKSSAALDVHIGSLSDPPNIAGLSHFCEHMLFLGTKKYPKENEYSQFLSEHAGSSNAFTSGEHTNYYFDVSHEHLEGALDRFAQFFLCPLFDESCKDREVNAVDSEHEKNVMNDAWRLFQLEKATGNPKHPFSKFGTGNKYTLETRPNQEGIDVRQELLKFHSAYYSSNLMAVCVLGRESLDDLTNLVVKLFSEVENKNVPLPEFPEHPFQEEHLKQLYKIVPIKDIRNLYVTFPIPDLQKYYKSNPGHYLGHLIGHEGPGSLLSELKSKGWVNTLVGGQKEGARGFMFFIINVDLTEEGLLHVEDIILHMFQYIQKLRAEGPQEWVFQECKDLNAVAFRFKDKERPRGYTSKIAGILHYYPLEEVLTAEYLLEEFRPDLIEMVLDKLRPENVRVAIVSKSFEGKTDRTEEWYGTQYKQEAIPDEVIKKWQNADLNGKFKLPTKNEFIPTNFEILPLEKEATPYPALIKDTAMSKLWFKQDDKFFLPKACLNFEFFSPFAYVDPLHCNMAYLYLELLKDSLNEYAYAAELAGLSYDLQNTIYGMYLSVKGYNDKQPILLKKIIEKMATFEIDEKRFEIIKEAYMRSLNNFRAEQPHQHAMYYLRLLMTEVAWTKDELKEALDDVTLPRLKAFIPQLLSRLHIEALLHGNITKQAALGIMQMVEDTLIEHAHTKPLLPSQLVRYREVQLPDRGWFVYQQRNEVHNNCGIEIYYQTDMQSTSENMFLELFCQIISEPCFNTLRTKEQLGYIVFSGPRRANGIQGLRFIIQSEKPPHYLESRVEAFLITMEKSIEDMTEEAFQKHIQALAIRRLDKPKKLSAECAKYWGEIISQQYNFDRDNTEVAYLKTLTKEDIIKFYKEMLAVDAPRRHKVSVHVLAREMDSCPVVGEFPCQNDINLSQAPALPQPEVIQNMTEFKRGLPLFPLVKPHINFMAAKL
Description: (§1) IDE activity was quantified by monitoring the degradation of Mca-[…](Dnp) (FRET1, 5 μM), fluoresceinated and biotinylated amyloid ß-protein (FAßB; 500 nM) or recombinant human insulin (50 nM) in PBS supplemented with 0.05% BSA. […] In vitro activity assays incorporated recombinant human IDE (1 nM) purified from bacteria. For quantitation of insulin degradation in primary murine skin fibroblasts, cells (1 x 10^5/well) were plated in 96-well plates and maintained in DMEM supplemented with 10% fetal bovine serum (FBS), 2mM glutamine, penicillin and streptomycin. After addition of insulin (10 nM or 100 nM), samples of conditioned medium were removed daily and quickly frozen, then insulin levels were quantified in parallel by ELISA according to manufacturer’s recommendations (Crystal Chem, Downers Grove, IL, USA). Assessment of the activity of P12-3A against a variety of matrix-metalloproteases was conducted using the Matrix Metalloproteinase (MMP) Inhibitor Profiling Kit, Fluorometric RED (Enzo Life Sciences, Inc., Farmingdale, NY, USA) according to manufacturer’s recommendations using the broad-spectrum MMP inhibitor, NNGH, as a positive control.

IDE [2] = molecular target: T1, IDE; experiment: biochemical; conditions: for IC50: dose-response, FRET1; for IC50 <500 uM?: initial test at 500 uM; for remaining activity at 500 µM: individual replicates, read-out: Percent activity at 500 uM, Replicate 1-4; for Percent activity at 500 uM, Mean: N 4
Description: The six selected peptide sequences (C7C-1, C7C-2, 12–1, 12–2, 12–3 and 12–4) were synthesized, together with a variety of modifications, yielding a total of 25 peptides (Table 1). […] Other modifications included N-terminal acetylation and C-terminal amidation, included to mimic the charge state of the peptides when incorporated in the phage coat protein (Table 1).
as §1

IDE [3] = molecular target: T1, IDE; experiment: biochemical; conditions: for Ki: substrate recombinant human insulin 50 nM, Ki from IC50 with the Cheng-Prusoff equation
Text: The six selected peptide sequences (C7C-1, C7C-2, 12–1, 12–2, 12–3 and 12–4) were synthesized, together with a variety of modifications, yielding a total of 25 peptides (Table 1). For the 12-mer peptides, we synthesized variants of the parent peptides truncated at one or both termini, to test whether the entire sequence was necessary or not, in the hope that shorter, and thus less expensive, sequences might be effective. Other modifications included N-terminal acetylation and C-terminal amidation, included to mimic the charge state of the peptides when incorporated in the phage coat protein (Table 1). To assess the extent to which these peptide sequences inhibit IDE, we quantified their potency in protease activity assays using recombinant human IDE and two different substrates: FRET1, a fluorogenic peptide, and recombinant human insulin.
IDE activity was quantified by monitoring the degradation of Mca-[…](Dnp) (FRET1, 5 μM), fluoresceinated and biotinylated amyloid ß-protein (FAßB; 500 nM) or recombinant human insulin (50 nM) in PBS supplemented with 0.05% BSA. FRET1 degradation was measured by changes in fluorescence (λex = 340 nm, λem = 420 nm); FAßB degradation was monitored by fluorescence polarization (λex = 488 nm, λem = 525 nm), as described; and insulin degradation was quantified by ELISA. In vitro activity assays incorporated recombinant human IDE (1 nM) purified from bacteria. For quantitation of insulin degradation in primary murine skin fibroblasts, cells (1 x 10^5/well) were plated in 96-well plates and maintained in DMEM supplemented with 10% fetal bovine serum (FBS), 2mM glutamine, penicillin and streptomycin. After addition of insulin (10 nM or 100 nM), samples of conditioned medium were removed daily and quickly frozen, then insulin levels were quantified in parallel by ELISA according to manufacturer’s recommendations (Crystal Chem, Downers Grove, IL, USA). Assessment of the activity of P12-3A against a variety of matrix-metalloproteases was conducted using the Matrix Metalloproteinase (MMP) Inhibitor Profiling Kit, Fluorometric RED (Enzo Life Sciences, Inc., Farmingdale, NY, USA) according to manufacturer’s recommendations using the broad-spectrum MMP inhibitor, NNGH, as a positive control.

[4] = 4-hr incubation, Cmpd 0.12207 uM, individual runs
[5] = 4-hr incubation, Cmpd 0.488281 uM, individual runs
[6] = 4-hr incubation, Cmpd 1.95312 uM, individual runs
[7] = 4-hr incubation, Cmpd 7.8125 uM, individual runs
[8] = 4-hr incubation, Cmpd 31.25 uM, individual runs
[9] = 4-hr incubation, Cmpd 125 uM, individual runs
[10] = 4-hr incubation, Cmpd 500 uM, individual runs
[11] = 4-hr incubation, individual replicates, read-out: IC50s
[12] = 4-hr incubation, mean of 2 replicates, read-out: IC50s, Mean
[13] = substrate FRET1 5 μM, Ki from IC50 with the Cheng-Prusoff equation, read-out: Ki FRET1
[14] = initial test, percent of initial velocity relative to DMSO-only controls
[15] = peptide at 10 uM, insulin 100 nM, normalized to DMSO-only and no-enzyme controls

Ki (IDE [1]; 4-hr incubation): 131 µM
remaining activity at 0.12207 µM (IDE [1]; [4]): 90.2%
remaining activity at 0.488281 µM (IDE [1]; [5]): 82.8%
remaining activity at 1.95312 µM (IDE [1]; [6]): 80.5%
remaining activity at 7.8125 µM (IDE [1]; [7]): 70.1%
remaining activity at 31.25 µM (IDE [1]; [8]): 51.8%
remaining activity at 125 µM (IDE [1]; [9]): 36.3%
remaining activity at 500 µM (IDE [1]; [10]): 9.02%
IC50 (IDE [1]; 0-hr incubation, mean of runs, read-out: IC50s, Mean): 61.4 µM
IC50 (IDE [1]; [11]): 200 µM and 193 µM
IC50 (IDE [1]; [12]): 197 µM
Ki (IDE [2]; Cheng-Prusoff, KM 10 uM, substrate concentration 5 uM, read-out: Ki values, Mean): 40.9 µM
IC50 (IDE [2]; individual runs, read-out: IC50s, Run 1-6): 52.2 µM and 51.3 µM and 80.5 µM
IC50 (IDE [2]; read-out: IC50s, Mean): 61.4 µM
IC50 <500 uM? (IDE [2]): YES
remaining activity at 500 µM (IDE [2]; judged as IC50 <100 uM?): 32.1%
Ki (IDE [2]; [13]): 41 ± 6.4 µM
IC50 (IDE [3]; insulin ELISA assay, dose-response, Replicates 1-3, read-out: IC50s, individual replicates): 20.6 µM and 9.35 µM and 12.2 µM
IC50 (IDE [3]; insulin ELISA assay, dose-response, N=3, read-out: IC50s, Mean): 14 µM
Ki (IDE [3]): 7 ± 1.7 µM
Substance: VHWDFRQW-NH2 [P12-1B]

Percent Activity (normalized initial velocity of FRET1 hydrolysis) (IDE [1]; 0-hr incubation, Cmpd 0.12207 uM, individual runs): 87.1275% and 89.107% and 97.5567%
Percent Activity (normalized initial velocity of FRET1 hydrolysis) (IDE [1]; 0-hr incubation, Cmpd 0.488281 uM, individual runs): 88.274% and 92.2277% and 96.9846%
Percent Activity (normalized initial velocity of FRET1 hydrolysis) (IDE [1]; 0-hr incubation, Cmpd 1.95312 uM, individual runs): 91.5093% and 89.6687% and 99.5643%
Percent Activity (normalized initial velocity of FRET1 hydrolysis) (IDE [1]; 0-hr incubation, Cmpd 7.8125 uM, individual runs): 83.3253% and 88.0997% and 90.5388%
Percent Activity (normalized initial velocity of FRET1 hydrolysis) (IDE [1]; 0-hr incubation, Cmpd 31.25 uM, individual runs): 61.5604% and 65.1463% and 71.7432%
Percent Activity (normalized initial velocity of FRET1 hydrolysis) (IDE [1]; 0-hr incubation, Cmpd 125 uM, individual runs): 22.5624% and 28.2506% and 30.6967%
Percent Activity (normalized initial velocity of FRET1 hydrolysis) (IDE [1]; 0-hr incubation, Cmpd 500 uM, individual runs): 2.879% and 4.537% and 8.696%
Percent Activity (normalized initial velocity of FRET1 hydrolysis) (IDE [1]; [4]): 96.239% and 102.101%
Percent Activity (normalized initial velocity of FRET1 hydrolysis) (IDE [1]; [5]): 100.910% and 100.775%
Percent Activity (normalized initial velocity of FRET1 hydrolysis) (IDE [1]; [6]): 100.923% and 102.486%
Percent Activity (normalized initial velocity of FRET1 hydrolysis) (IDE [1]; [7]): 97.345% and 105.750%
Percent Activity (normalized initial velocity of FRET1 hydrolysis) (IDE [1]; [8]): 94.256% and 100.607%
Percent Activity (normalized initial velocity of FRET1 hydrolysis) (IDE [1]; [9]): 90.993% and 91.075%
Percent Activity (normalized initial velocity of FRET1 hydrolysis) (IDE [1]; [10]): 24.626% and 23.530%
Percent activity at 500 uM, Mean (IDE [2]; [14]): 6.4%
Percent activity at 500 uM, Mean (IDE [2]; judged as IC50 <100 uM?): 29.8%
percent decrease in insulin detected by ELISA, Replicate 1 (IDE [3]; [15]): 111.9%
percent decrease in insulin detected by ELISA, Replicate 2 (IDE [3]; [15]): 145.7%
percent decrease in insulin detected by ELISA, Replicate 3 (IDE [3]; [15]): 105.6%
percent decrease in insulin detected by ELISA, Replicate 4 (IDE [3]; [15]): 114.6%
percent decrease in insulin detected by ELISA, Mean (IDE [3]; peptide at 10 uM, insulin 100 nM, normalized to DMSO-only and no-enzyme controls, N=4): 119.5%
Substance: WCYPHCVT [P12-3C]

Ki (IDE [1]; 0-hr incubation): 139 µM
Ki (IDE [1]; 4-hr incubation): 327 µM
remaining activity at 0.12207 µM (IDE [1]; [4]): 100%
remaining activity at 0.488281 µM (IDE [1]; [5]): 104%
remaining activity at 1.95312 µM (IDE [1]; [6]): 105%
remaining activity at 7.8125 µM (IDE [1]; [7]): 104%
remaining activity at 31.25 µM (IDE [1]; [8]): 78.2%
remaining activity at 125 µM (IDE [1]; [9]): 24.3%
remaining activity at 500 µM (IDE [1]; [10]): 2.79%
IC50 (IDE [1]; 0-hr incubation (immediately after combining enzyme and peptide), individual runs, read-out: IC50s): 150 µM and 254 µM and 220 µM
IC50 (IDE [1]; [11]): 482 µM and 500 µM
IC50 (IDE [1]; [12]): 491 µM
IC50 (IDE [2]; read-out: IC50s, Mean): 208 µM
IC50 <500 uM? (IDE [2]): YES
remaining activity at 500 µM (IDE [2]; [14]): 12.6%
remaining activity at 500 µM (IDE [2]; judged as IC50 <100 uM?): 33.8%
Ki (IDE [2]; [13]): 139 ± 21 µM
IC50 (IDE [3]; from initial test at 10 uM using insulin (100 nM), read-out: IC50 (summary of results, listed in Table 1)): > 10 µM
Ki (IDE [3]): > 10 µM
Substance: Ac-FRQWWQPS [P12-1C]
